Results as given in patent US9693556B2, “Herbicidal pyridazinone derivatives” (SYNGENTA LIMITED, priority 2011, dated 2017).

Key:
Format in all cases: in vivo
Solanum nigrum (SOLNI) [1] = assay: Pre-emergence herbicidal glasshouse test on Solanum nigrum; details: pre-emergence; 1000 g/h; evaluated after 13 days
How it was run: (§1)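 Herbicidal damage was rated 13 days after treatment on a five-point scale, where 5 denotes 80-100% and 1 denotes 0-19% damage. Spraying at 1000 g/h followed sowing by one day (pre-emergence) or eight days (post-emergence).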

[2] = tested on: Amaranthus retoflexus (AMARE); assay: Post-emergence herbicidal glasshouse test on Amaranthus retoflexus; details: post-emergence; 1000 g/h; evaluated after 13 days
How it was run: as §1

[3] = tested on: Ipomoea hederacea (IPOHE); assay: Post-emergence herbicidal glasshouse test on Ipomoea hederacea; details: post-emergence; 1000 g/h; evaluated after 13 days
How it was run: as §1

[4] = tested on: Alopecurus myosuroides (ALOMY); assay: Post-emergence herbicidal glasshouse test on Alopecurus myosuroides; details: post-emergence; 1000 g/h; evaluated after 13 days
How it was run: as §1

[5] = tested on: Amaranthus retoflexus (AMARE); assay: Pre-emergence herbicidal glasshouse test on Amaranthus retoflexus; details: pre-emergence; 1000 g/h; evaluated after 13 days
How it was run: as §1

[6] = tested on: Echinochloa crus-galli (ECHCG); assay: Pre-emergence herbicidal glasshouse test on Echinochloa crus-galli; details: pre-emergence; 1000 g/h; evaluated after 13 days
How it was run: as §1

Setaria faberi (SETFA) [7] = assay: Pre-emergence herbicidal glasshouse test on Setaria faberi; details: pre-emergence; 1000 g/h; evaluated after 13 days
How it was run: as §1

[8] = tested on: Echinochloa crus-galli (ECHCG); assay: Post-emergence herbicidal glasshouse test on Echinochloa crus-galli; details: post-emergence; 1000 g/h; evaluated after 13 days
How it was run: as §1

[9] = tested on: Alopecurus myosuroides (ALOMY); assay: Pre-emergence herbicidal glasshouse test on Alopecurus myosuroides; details: pre-emergence; 1000 g/h; evaluated after 13 days
How it was run: as §1

Solanum nigrum (SOLNI) [10] = assay: Post-emergence herbicidal glasshouse test on Solanum nigrum; details: post-emergence; 1000 g/h; evaluated after 13 days
How it was run: as §1

Setaria faberi (SETFA) [11] = assay: Post-emergence herbicidal glasshouse test on Setaria faberi; details: post-emergence; 1000 g/h; evaluated after 13 days
How it was run: as §1

[12] = tested on: Ipomoea hederacea (IPOHE); assay: Pre-emergence herbicidal glasshouse test on Ipomoea hederacea; details: pre-emergence; 1000 g/h; evaluated after 13 days
How it was run: as §1

SMILES | PRE Application SOLNI herbicidal damage (five point scale) (Solanum nigrum (SOLNI) [1]) | POST Application AMARE herbicidal damage (five point scale) [2] | POST Application IPOHE herbicidal damage (five point scale) [3] | POST Application ALOMY herbicidal damage (five point scale) [4] | PRE Application AMARE herbicidal damage (five point scale) [5] | PRE Application ECHCG herbicidal damage (five point scale) [6] | PRE Application SETFA herbicidal damage (five point scale) (Setaria faberi (SETFA) [7]) | POST Application ECHCG herbicidal damage (five point scale) [8] | PRE Application ALOMY herbicidal damage (five point scale) [9] | POST Application SOLNI herbicidal damage (five point scale) (Solanum nigrum (SOLNI) [10]) | POST Application SETFA herbicidal damage (five point scale) (Setaria faberi (SETFA) [11]) | PRE Application IPOHE herbicidal damage (five point scale) [12]
Cn1ncc(-c2ccccc2C(F)(F)F)c(O)c1=O [Compound 1.116] | 3 (3=40-59% damage) | 4 (4=60-79% damage) | 4 (4=60-79% damage) | 1 (1=0-19% damage) | 5 (5=80-100% damage) | 1 (1=0-19% damage) | 2 (2=20-39% damage) | 2 (2=20-39% damage) | 2 (2=20-39% damage) | 5 (5=80-100% damage) | 2 (2=20-39% damage) | 1 (1=0-19% damage)
Cn1ncc(-c2c(Cl)cccc2Cl)c(O)c1=O [Compound 1.118] | 1 (1=0-19% damage) | 4 (4=60-79% damage) | 2 (2=20-39% damage) | 1 (1=0-19% damage) | 1 (1=0-19% damage) | 1 (1=0-19% damage) | 1 (1=0-19% damage) | 2 (2=20-39% damage) | 1 (1=0-19% damage) | 3 (3=40-59% damage) | 1 (1=0-19% damage) | 1 (1=0-19% damage)
Cn1ncc(-c2ccc(S(C)(=O)=O)cc2S(C)(=O)=O)c(O)c1=O [Compound 1.119] | 5 (5=80-100% damage) | 5 (5=80-100% damage) | 5 (5=80-100% damage) | 5 (5=80-100% damage) | 5 (5=80-100% damage) | 5 (5=80-100% damage) | 5 (5=80-100% damage) | 5 (5=80-100% damage) | 5 (5=80-100% damage) | 5 (5=80-100% damage) | 5 (5=80-100% damage) | 5 (5=80-100% damage)
Cc1c(-c2cnn(CC3CC3)c(=O)c2O)ccc(S(C)(=O)=O)c1C1=NOCC1 [Compound 1.120] | 4 (4=60-79% damage) | 5 (5=80-100% damage) | 5 (5=80-100% damage) | 5 (5=80-100% damage) | 5 (5=80-100% damage) | 5 (5=80-100% damage) | 4 (4=60-79% damage) | 5 (5=80-100% damage) | 3 (3=40-59% damage) | 5 (5=80-100% damage) | 5 (5=80-100% damage) | 4 (4=60-79% damage)
CCCn1ncc(-c2ccc(S(C)(=O)=O)c(C3=NOCC3)c2Cl)c(O)c1=O [Compound 1.125, 5-[2-chloro-3-(4,5-dihydroisoxazol-3-yl)-4-methylsulfonyl-phenyl]-4-hydroxy-2-propyl-pyridazin-3-one] | 4 (4=60-79% damage) | 5 (5=80-100% damage) | 5 (5=80-100% damage) | 5 (5=80-100% damage) | 5 (5=80-100% damage) | 5 (5=80-100% damage) | 5 (5=80-100% damage) | 5 (5=80-100% damage) | 4 (4=60-79% damage) | 5 (5=80-100% damage) | 5 (5=80-100% damage) | 1 (1=0-19% damage)
CCCn1ncc(-c2c(Cl)ccc(Cl)c2Cl)c(O)c1=O [Compound 1.128] | 1 (1=0-19% damage) | 1 (1=0-19% damage) | 3 (3=40-59% damage) | 1 (1=0-19% damage) | 1 (1=0-19% damage) | 1 (1=0-19% damage) | 1 (1=0-19% damage) | 1 (1=0-19% damage) | 1 (1=0-19% damage) | 4 (4=60-79% damage) | 2 (2=20-39% damage) | 1 (1=0-19% damage)
CCCn1ncc(-c2c(Cl)cccc2Cl)c(O)c1=O [Compound 1.129] | 1 (1=0-19% damage) | 3 (3=40-59% damage) | 2 (2=20-39% damage) | 1 (1=0-19% damage) | 1 (1=0-19% damage) | 1 (1=0-19% damage) | 1 (1=0-19% damage) | 2 (2=20-39% damage) | 1 (1=0-19% damage) | 3 (3=40-59% damage) | 2 (2=20-39% damage) | 1 (1=0-19% damage)
Cc1c(-c2cnn(C(C)(C)C)c(=O)c2O)ccc(S(C)(=O)=O)c1C1=NOCC1 [Compound 1.131] | 4 (4=60-79% damage) | 5 (5=80-100% damage) | 5 (5=80-100% damage) | 4 (4=60-79% damage) | 3 (3=40-59% damage) | 1 (1=0-19% damage) | 1 (1=0-19% damage) | 5 (5=80-100% damage) | 1 (1=0-19% damage) | 5 (5=80-100% damage) | 4 (4=60-79% damage) | 1 (1=0-19% damage)
CC(C)(C)n1ncc(-c2c(Cl)cccc2Cl)c(O)c1=O [Compound 1.133] | 1 (1=0-19% damage) | 1 (1=0-19% damage) | 2 (2=20-39% damage) | 1 (1=0-19% damage) | 1 (1=0-19% damage) | 1 (1=0-19% damage) | 1 (1=0-19% damage) | 3 (3=40-59% damage) | 1 (1=0-19% damage) | 2 (2=20-39% damage) | 1 (1=0-19% damage) | 1 (1=0-19% damage)
CN(C)c1nc(C(F)(F)F)ccc1-c1cnn(C)c(=O)c1O [Compound 1.134] | 5 (5=80-100% damage) | 5 (5=80-100% damage) | 5 (5=80-100% damage) | 1 (1=0-19% damage) | 5 (5=80-100% damage) | 1 (1=0-19% damage) | 1 (1=0-19% damage) | 2 (2=20-39% damage) | 1 (1=0-19% damage) | 5 (5=80-100% damage) | 2 (2=20-39% damage) | 2 (2=20-39% damage)
